# Assay results reported in patent US20250215029A1 (Recludix Pharma, Inc., priority 2022, published 2025).
# Target: T1, pY705-STAT3 in PBMC (Homo sapiens, UniProt P40763)
# T1 construct: Cryopreserved Peripheral Blood Mononuclear Cells (PBMC) are from AllCells; host or cells: cryopreserved PBMC
# Assay: MSD-pSTAT-PBMC Assay (pSTAT3, IL-6 stimulated)
# Assay type: cell-based
# Conditions: PBMC, compound 3 hrs, then 10 ng/mL IL-6 for 10 min; Table 115; read-out: STAT3
# How it was run: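 PBMC (human, cryopreserved, overnight recovery) + cpd 3 hrs → IL-6 10 ng/mL (STAT3) or IL-4 1 ng/mL (STAT6) ×10 min → lysis with protease/phosphatase inhibitors → MSD capture/phospho detection. IC50, variable slope, DMSO-normalized.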
# T1 sequence (P40763 whole entry): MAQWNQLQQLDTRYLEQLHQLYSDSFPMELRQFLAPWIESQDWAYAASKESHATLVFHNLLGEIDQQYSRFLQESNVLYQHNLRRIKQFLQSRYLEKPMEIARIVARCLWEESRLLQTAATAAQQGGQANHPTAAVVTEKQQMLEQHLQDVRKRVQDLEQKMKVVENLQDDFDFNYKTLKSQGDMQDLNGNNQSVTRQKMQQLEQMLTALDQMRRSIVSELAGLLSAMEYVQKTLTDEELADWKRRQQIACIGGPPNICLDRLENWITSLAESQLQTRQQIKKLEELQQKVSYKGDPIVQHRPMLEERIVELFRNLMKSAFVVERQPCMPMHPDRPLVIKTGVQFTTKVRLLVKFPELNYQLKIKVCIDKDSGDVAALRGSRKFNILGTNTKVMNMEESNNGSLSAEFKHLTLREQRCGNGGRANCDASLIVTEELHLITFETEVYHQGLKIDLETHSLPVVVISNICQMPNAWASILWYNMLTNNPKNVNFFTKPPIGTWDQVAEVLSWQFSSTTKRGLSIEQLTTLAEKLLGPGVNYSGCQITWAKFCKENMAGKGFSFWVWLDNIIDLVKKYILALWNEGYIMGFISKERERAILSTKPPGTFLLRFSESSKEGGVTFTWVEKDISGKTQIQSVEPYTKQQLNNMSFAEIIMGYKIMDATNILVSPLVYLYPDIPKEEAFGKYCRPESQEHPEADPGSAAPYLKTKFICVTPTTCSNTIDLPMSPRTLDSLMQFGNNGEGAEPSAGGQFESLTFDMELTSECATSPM
row,SMILES,IC50
1,"CCCOC(=O)C(C)CNP(=O)(Cc1ccc2sc(C(=O)N[C@H]3CCC[C@H]4CC[C@@H](C(=O)N5CC(c6cccnc6)C5)N4C3=O)cc2c1)Oc1ccccc1 (stereo partly drawn) [Compound 294, propyl 2-methyl-3-((((2-(((3S,6S,9aS)-5-oxo-3-(3-(pyridin-3-yl)azetidine-1-carbonyl)octahydro-1H-pyrrolo[1,2-a]azepin-6-yl)carbamoyl)benzo [b]thiophen-5-yl)methyl)(phenoxy)phosphoryl)amino) propanoate]",1 to 3 µM
2,"CCCOC(=O)[C@H](CC)NP(=O)(Cc1ccc2sc(C(=O)N[C@H]3CCC[C@H]4CC[C@@H](C(=O)N5CC(c6cccnc6)C5)N4C3=O)cc2c1)Oc1ccccc1 (stereo partly drawn) [Compound 296, propyl (2S)-2-((((2-(((3S,6S,9aS)-5-oxo-3-(3-(pyridin-3-yl)azetidine-1-carbonyl)octahydro-1H-pyrrolo[1,2-a]azepin-6-yl)carbamoyl)benzo [b]thiophen-5-yl)methyl)(phenoxy)phosphoryl)amino) butanoate]",< 0.1 µM
3,"Cc1ccncc1C1CN(C(=O)[C@@H]2CC[C@@H]3CCC[C@H](NC(=O)c4cc5cc(C(F)(F)P(=O)(N[C@@H](C)C(=O)OCc6ccccc6)Oc6ccccc6)ccc5s4)C(=O)N32)C1 (stereo partly drawn) [Compound 297, benzyl ((difluoro(2-(((3S,6S,9aS)-3-(3-(4-methylpyridin-3-yl)azetidine-1-carbonyl)-5-oxooctahydro-1H-pyrrolo[1,2-a]azepin-6-yl)carbamoyl)benzo [b]thiophen-5-yl)methyl)(phenoxy)phosphoryl)-L-alaninate]",0.1 to 1 µM
4,"Cc1ccncc1C1CN(C(=O)[C@@H]2CC[C@@H]3CCC[C@H](NC(=O)c4cc5cc(CP(=O)(N[C@@H](C)C(=O)OC(C)C)Oc6ccccc6)ccc5s4)C(=O)N32)C1 (stereo partly drawn) [Compound 298, isopropyl (((2-(((3S,6S,9aS)-3-(3-(4-methylpyridin-3-yl)azetidine-1-carbonyl)-5-oxooctahydro-1H-pyrrolo[1,2-a]azepin-6-yl)carbamoyl)benzo [b]thiophen-5-yl)methyl)(phenoxy)phosphoryl)-L-alaninate]",0.1 to 1 µM
5,"CCCOC(=O)[C@H](C)NP(=O)(Cc1ccc2sc(C(=O)N[C@H]3CCC[C@H]4CC[C@@H](C(=O)N5CC(c6cnccc6N6CC(OC)C6)C5)N4C3=O)cc2c1)Oc1ccccc1 (stereo partly drawn) [Compound 300, propyl (((2-(((3S,6S,9aS)-3-(3-(4-(3-methoxyazetidin-1-yl)pyridin-3-yl)azetidine-1-carbonyl)-5-oxooctahydro-1H-pyrrolo[1,2-aJazepin-6-yl)carbamoyl)benzo [b]thiophen-5-yl)methyl)(phenoxy)phosphoryl)-L-alaninate]",< 0.1 µM
6,"CCCOC(=O)[C@H](C)NP(=O)(Cc1ccc2sc(C(=O)N[C@H]3CCC[C@H]4CC[C@@H](C(=O)N5CC(c6cnccc6N6CC[C@H]6COC)C5)N4C3=O)cc2c1)Oc1ccccc1 (stereo partly drawn) [Compound 301, propyl (((2-(((3S,6S,9aS)-3-(3-(4-((S)-2-(methoxymethyl)azetidin-1-yl)pyridin-3-yl)azetidine-1-carbonyl)-5-oxooctahydro-1H-pyrrolo[1,2-a]azepin-6-yl)carbamoyl)benzo [b]thiophen-5-yl)methyl)(phenoxy)phosphoryl)-L-alaninate]",< 0.1 µM

# Same assay, conditions: STAT3, PBMC, compound 3 hrs, then 10 ng/mL IL-6 for 10 min; Table 115
row,SMILES,IC50
1,"CCCCOC(=O)[C@@H]1CC(F)(F)CN1P(=O)(Cc1ccc2sc(C(=O)N[C@H]3CCC[C@H]4CC[C@@H](C(=O)N5CC(c6cccnc6)C5)N4C3=O)cc2c1)Oc1ccccc1 (stereo partly drawn) [Compound 295, butyl (2S)-4,4-difluoro-1-(((2-(((3S,6S,9aS)-5-oxo-3-(3-(pyridin-3-yl)azetidine-1-carbonyl)octahydro-1H-pyrrolo[1,2-a]azepin-6-yl)carbamoyl)benzo [b]thiophen-5-yl)methyl)(phenoxy)phosphoryl) pyrrolidine-2-carboxylate]",1 to 3 µM
